The values below come from patent publication EP3922268B1, “NEW DERIVATIVES OBTAINED FROM HYALURONIC ACID AND CARNOSINE” (Fidia Farmaceutici S.p.A., priority 2020, dated 2023).

The structures appear in SMILES notation.

For the experiment, the system named is HFF1 cell line (consisting of fibroblasts derived from human skin). The experiment is described as follows: MTT cell viability assay. Type of experiment: cell-based. The note with it: HFF1 cells, 5 hours incubation; carnosine alone 0.136 mM. As for the experimental part:
Trial design. The cell response of conjugate (1) in terms of cell viability was determined in vitro by performing the MTT assay (Mosmann T, J Immunol Methods 1983; 65:55-63) on the HFF1 cell line (consisting of fibroblasts derived from human skin). The cells were used at passages 20-23, cultured at 37°C and 5% CO2 in Dulbecco's Modified Eagle Medium (DMEM) with integrated glucose and added with FBS (1%). To conduct the MTT assay, the cells were plated in 96-well multiwell plates (7000 cells per well) in DMEM culture medium with integrated glucose and added with 1% FBS; after 48 hours they were treated with control medium, or with medium alternatively containing carnosine, conjugate (1) prepared as described in EXAMPLE 1, or complexes of conjugate (1) with Cu(II), for 5 hours of incubation at 37°C and 5% CO2. Each treatment was performed in triplicate. […] After removal of the liquid from each well and addition of DMSO (100 µl), the absorbance of the formazan salt (blue) produced by the cleavage reaction of the tetrazolium ring of MTT (yellow) by the mitochondrial enzyme succinate dehydrogenase present in the viable cells only was measured in a multiplate reader (Synergy™ 2 Multi-Mode Microplate Reader) at the wavelength of 570 nm. […]

Regarding `NCCC(=O)N[C@@H](Cc1c[nH]cn1)C(=O)O` [carnosine, β-alanyl-L-histidine], the “increase in cell viability” value was “did not lead to any increase in cell viability”.
